# Assay results reported in patent US10034886B2, “GLP-1 receptor modulators” (Celgene International II SÀRL, priority 2014, dated 2018).
# pEC50: −log10 of the molar value.
# Molecular target: T1, GLP-1R (Homo sapiens, UniProt P43220)
# T1 construct: host or cells: GLP-1R CRE-bla CHO-K1 cells
# Assay: EC20 GLP-1(9-36) PAM cAMP assay: dose response of compound in the presence of fixed concentration of GLP-1(9-36)
# Assay type: cell-based
# Conditions: GLP-1R CRE-bla CHO-K1 cells, compound dose response with fixed concentration of GLP-1(9-36), read-out: EC20 GLP-1(9-36) PAM EC50
# Procedure, shortened: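 Positive allosteric modulation read as cAMP accumulation: compound titrations (12 points) combined with an EC20 level of GLP-1(9-36) on CHO-K1 GLP-1R CRE-bla cells, IBMX present, 30 min, 37 °C, pH 7.4 buffer. Luminescence converted to cAMP via standards; non-linear fit gave EC50 and Emax.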
# T1 sequence (P43220 24-463): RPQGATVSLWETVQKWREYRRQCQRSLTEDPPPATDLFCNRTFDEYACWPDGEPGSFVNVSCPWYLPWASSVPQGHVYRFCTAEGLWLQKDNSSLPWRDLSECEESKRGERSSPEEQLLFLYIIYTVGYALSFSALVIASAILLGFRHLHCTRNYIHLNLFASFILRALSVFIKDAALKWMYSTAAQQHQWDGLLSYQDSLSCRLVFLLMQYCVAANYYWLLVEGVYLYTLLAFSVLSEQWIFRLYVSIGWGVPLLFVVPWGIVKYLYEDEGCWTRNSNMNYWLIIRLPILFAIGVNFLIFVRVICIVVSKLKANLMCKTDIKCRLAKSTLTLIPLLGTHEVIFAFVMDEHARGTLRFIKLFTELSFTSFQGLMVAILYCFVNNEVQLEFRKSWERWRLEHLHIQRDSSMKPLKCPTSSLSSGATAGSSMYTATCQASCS
# T1 sequence (P01275 100-127 partner limits assumed): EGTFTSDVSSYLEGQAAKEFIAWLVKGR
row,SMILES,pEC50
1,CCC[C@H]1CC[C@H](C2CCN(c3cnc(-c4ccc(C[C@H](NC(=O)c5ccc(C(C)(C)CC)cc5)C(=O)N5CC(C(=O)O)C5)cc4)nc3)CC2)CC1 [Compound 1518],> 6.10
2,CCC[C@H]1CC[C@H](C2CCN(c3cnc(-c4ccc(C[C@H](NC(=O)c5ccc(C(C)(C)C)s5)C(=O)N[C@@H](CN)C(=O)O)cc4)nc3)CC2)CC1 [Compound 1472],> 6.10
3,CCCCc1ccc(CC2CN(c3cnc(-c4ccc(CC(NC(=O)c5ccc(C(C)(C)C)s5)C(=O)N5CC(C(=O)O)C5)cc4)nc3)C2)cc1 (stereo not drawn) [Compound 1510],5.30 to 5.60
4,Cc1cc(F)ccc1-c1ccc(-c2cnc(-c3ccc(C[C@H](NC(=O)c4ccc(C(C)(C)C)s4)C(=O)N4CC(C(=O)O)C4)cc3)nc2)c(F)c1 [Compound 1206],5.60 to 6.10
5,CCC[C@H]1CC[C@H](C2CCN(c3cnc(-c4ccc(C[C@H](NC(=O)c5ccc(C(C)(C)C)s5)C(=O)N[C@H](C)C(=O)O)cc4)nc3)CC2)CC1 [Compound 1437],> 6.10
6,CC[C@H]1CC[C@H](c2ccc(-c3cnc(-c4ccc(C[C@H](NC(=O)c5ccc(C6(C#N)CC6)s5)C(=O)N5CC(C(=O)O)C5)cc4)nc3)cc2)CC1 [Compound 1340],> 6.10
7,C[C@@H](NC(=O)[C@H](Cc1ccc(-c2ncc(/C=C/c3ccc(C(F)(F)F)cc3)cn2)cc1)NC(=O)c1ccc(C(C)(C)C)s1)C(=O)O [Compound 1252],5.60 to 6.10
8,CCC[C@H]1CC[C@H](C2CCN(c3cnc(-c4ccc(C[C@H](NC(=O)c5ccc(C(C)(C)C)s5)C(=O)NC(C)(C)C(=O)O)cc4)nc3)CC2)CC1 [Compound 1466],> 6.10
9,CCC(CC)Oc1ccc(-c2ccc(-c3cnc(-c4ccc(C[C@H](NC(=O)c5ccc(C(C)(C)C)s5)C(=O)N[C@H](C)C(=O)O)cc4)nc3)cc2)cc1 [Compound 1298],> 6.10
10,Cc1cccc(C)c1-c1ccc(-c2cnc(-c3ccc(C[C@H](NC(=O)c4ccc(C(C)(C)C)s4)C(=O)N4CC(C(=O)O)C4)cc3)nc2)c(F)c1 [Compound 1205],> 6.10
11,CCCc1cnc(C2CCN(c3cnc(-c4ccc(C[C@H](NC(=O)c5ccc(C(C)(C)C)s5)C(=O)N5CC(C(=O)O)C5)cc4)nc3)CC2)nc1 [Compound 1499],5.30 to 5.60
12,CC(C)(C)c1ccc(C(=O)N[C@@H](Cc2ccc(-c3ncc(N4CCC(c5ccccc5Cl)CC4)cn3)cc2)C(=O)N2CC(C(=O)O)C2)s1 [Compound 1480],5.60 to 6.10
13,CC[C@H]1CC[C@H](c2ccc(-c3cnc(-c4ccc(C[C@H](NC(=O)c5ccc(C(F)(F)F)s5)C(=O)O)cc4)nc3)cc2)CC1 [Compound 1369],5.60 to 6.10
14,CCC[C@H]1CC[C@H](C2CCN(c3cnc(-c4ccc(C[C@H](NC(=O)c5ccn(C(C)(C)C)c5)C(=O)N5CC(C(=O)O)C5)cc4)nc3)CC2)CC1 [Compound 1532],> 6.10

# Same assay, conditions: dose response of compound in presence of fixed concentration of GLP-1(9-36), GLP-1R CRE-bla CHO-K1 cells, read-out: EC20 GLP-1(9-36) PAM EC50
row,SMILES,pEC50
1,CCCCCCCOc1ccc(-c2cnc(-c3ccc(C[C@H](NC(=O)c4ccc(C(C)(C)C)s4)C(=O)NCC(O)CO)cc3)nc2)cc1 (stereo partly drawn) [Compound 462],5.00 to 5.30
2,C[C@@H](NC(=O)[C@H](Cc1ccc(-c2ncc(-c3ccc(-c4ccccc4)cc3)cn2)cc1)NC(=O)c1ccc(C(C)(C)C)s1)C(=O)O [Compound 741],5.30 to 5.60
3,CCCCCCCOc1ccc(-c2cnc(-c3ccc(C[C@H](NC(=O)c4ccc(OCCC)cc4)C(=O)N[C@H](C)C(=O)O)cc3)nc2)cc1 [Compound 982],5.00 to 5.30
4,CCCCCCCOc1ccc(-c2cnc(-c3ccc(C[C@H](NC(=O)c4ccc(OCC)cc4)C(=O)N4CC[C@H](C(=O)O)C4)cc3)nc2)cc1 [Compound 848],5.30 to 5.60
5,CCCCCCCOc1ccc(-c2cnc(-c3ccc(C[C@H](NC(=O)c4ccc(C(C)(C)C)s4)C(=O)N(C)CC4CCN(CCOC)CC4)cc3)nc2)cc1 [Compound 971],5.30 to 5.60
6,CCCCCCCOc1ccc(-c2cnc(-c3ccc(C[C@H](NC(=O)c4ccc(C(C)(C)C)s4)C(=O)NC[C@H]4CCCN4C)cc3)nc2)cc1 [Compound 973],5.00 to 5.30
7,CCCCCCCOc1ccc(-c2cnc(-c3ccc(C[C@H](NC(=O)c4ccc(C(C)C)cc4)C(=O)NCCC(=O)O)cc3)nc2)cc1 [Compound 446],5.60 to 6.10
8,CCCc1ccc(-c2cnc(-c3ccc(C[C@H](NC(=O)c4ccc(C(C)(C)C)cc4)C(=O)NCCC(=O)O)cc3)nc2)cc1 [Compound 687],5.30 to 5.60
9,CCCCCCCOc1ccc(-c2cnc(-c3ccc(C[C@H](NC(=O)c4ccc(C(C)(C)C)cc4)C(=O)NC(C(=O)O)c4nc(C)oc4C)cc3)nc2)cc1 (stereo partly drawn) [Compound 488],5.60 to 6.10
10,CC[C@H]1CC[C@H](c2ccc(-c3cnc(-c4ccc(C[C@H](NC(=O)c5ccc(C(C)(C)C)s5)C(=O)N[C@@H](C)C(=O)O)cc4)nc3)cc2)CC1 [Compound 1067],5.60 to 6.10
11,CCCCCCCOc1ccc(-c2cnc(-c3ccc(C[C@H](NC(=O)c4ccc(OCC(C)C)cc4)C(=O)N[C@H](C)C(=O)O)cc3)nc2)cc1 [Compound 829],5.00 to 5.30
12,CCCCOc1ccc(-c2cnc(-c3ccc(C[C@H](NC(=O)c4ccc(C(C)(C)C)cc4)C(=O)N[C@H](C)C(=O)O)cc3)nc2)cc1 [Compound 717],5.60 to 6.10
13,CCCCCCCOc1ccc(-c2cnc(-c3ccc(C[C@H](NC(=O)c4ccc(C(C)(C)C)cc4)C(=O)N[C@H](CC(=O)O)C(=O)NC)cc3)nc2)cc1 [Compound 589],5.60 to 6.10
14,CCCCCCCOc1ccc(-c2cnc(-c3ccc(C[C@H](NC(=O)c4ccc(C(C)(C)C)s4)C(=O)N4CC[C@H](C(=O)Nc5nnn[nH]5)C4)cc3)nc2)cc1 [Compound 885],5.00 to 5.30
15,CCCCCCCOc1ccc(-c2cnc(-c3ccc(C[C@H](NC(=O)c4ccc(C(C)(C)C)s4)C(=O)NC(C)CO)cc3)nc2)cc1 (stereo partly drawn) [Compound 387],5.00 to 5.30
16,CCCCCCCOc1ccc(-c2cnc(-c3ccc(C[C@H](NC(=O)c4cnc(C(C)(C)C)nc4)C(=O)NC(C(=O)O)C(O)c4ccccc4)cc3)nc2)cc1 (stereo partly drawn) [Compound 953],5.60 to 6.10
17,CCCCCCCOc1ccc(-c2cnc(-c3ccc(C[C@H](NC(=O)c4ccc(O)c(F)c4)C(=O)N4CC(C(=O)O)C4)cc3)nc2)cc1 [Compound 1104],5.60 to 6.10
18,CCCCCCCOc1ccc(-c2cnc(-c3ccc(C[C@H](NC(=O)c4ccc(C(C)(C)C)s4)C(=O)NC(Cc4nccs4)C(=O)O)cc3)nc2)cc1 (stereo partly drawn) [Compound 592],5.60 to 6.10

# Other lines, results leading:
row,pEC50,SMILES
1,5.60 to 6.10,CCCCCCCOc1ccc(-c2cnc(-c3ccc(C[C@H](NC(=O)c4ccc(CC)s4)C(=O)N4CC[C@H](C(=O)O)C4)cc3)nc2)cc1 [Compound 863]
2,5.60 to 6.10,CCCCCCCOc1ccc(-c2cnc(-c3ccc(C[C@H](NC(=O)c4ccc(C(C)(C)C)cc4)C(=O)N[C@H](CCCCN)C(=O)O)cc3)nc2)cc1 [Compound 466]
3,5.60 to 6.10,CCCCCCCOc1ccc(-c2cnc(-c3ccc(C[C@H](NC(=O)c4ccc(N5CCCC5)cc4)C(=O)N[C@@H](C)C(=O)O)cc3)nc2)cc1 [Compound 870]
4,> 6.10,Cc1cccc(-c2ccc(-c3cnc(-c4ccc(C[C@H](NC(=O)c5ccc(C(C)(C)C)s5)C(=O)N[C@H](C)C(=O)O)cc4)nc3)cc2F)c1 [Compound 1141]
5,5.60 to 6.10,CCCCCCCOc1ccc(-c2cnc(-c3ccc(C[C@H](NC(=O)c4ccc(C(C)(C)CC)cc4)C(=O)N4CCC[C@H]4C(=O)O)cc3)nc2)cc1 [Compound 1082]
6,5.60 to 6.10,CCCCCCCOc1ccc(-c2cnc(-c3ccc(C[C@H](NC(=O)c4ccc(C(C)(C)C)s4)C(=O)N4CC(C)(C(=O)O)C4)cc3)nc2)cc1 [Compound 874]
7,> 6.10,CCCCCCCOc1ccc(-c2cnc(-c3ccc(CC(NC(=O)c4ccc(C(C)(C)C)s4)C(=O)N4CCC(C(=O)O)C4)cc3)nc2)cc1 (stereo not drawn) [Compound 625]
8,> 6.10,CCCCCCCOc1ccc(-c2cnc(-c3ccc(C[C@H](NC(=O)c4ccc(C(C)(C)C)s4)C(=O)NC(C(=O)O)C(O)c4ccc(OC)cc4)cc3)nc2)cc1 (stereo partly drawn) [Compound 644]
9,> 6.10,CCCCCCCOc1ccc(-c2cnc(-c3ccc(C[C@H](NC(=O)c4ccc(C(C)(C)C)cc4)C(=O)NC(C(=O)O)c4ccc(OC)cc4)cc3)nc2)cc1 (stereo partly drawn) [Compound 543]
10,5.60 to 6.10,CC(C)CCCCOc1ccc(-c2cnc(-c3ccc(C[C@H](NC(=O)c4ccc(C(C)(C)C)cc4)C(=O)N[C@H](C)C(=O)O)cc3)nc2)cc1 [Compound 792]
11,5.60 to 6.10,C[C@@H](NC(=O)[C@H](Cc1ccc(-c2ncc(-c3ccc(C4CCCC4)cc3)cn2)cc1)NC(=O)c1ccc(C(C)(C)C)s1)C(=O)O [Compound 1046]
12,> 6.10,CCCCCCCOc1ccc(-c2cnc(-c3ccc(C[C@H](NC(=O)c4ccc(C(C)(C)C)s4)C(=O)N[C@@H](C(=O)O)[C@H](C)CC)cc3)nc2)cc1 [Compound 658]
13,5.60 to 6.10,C[C@@H](NC(=O)[C@H](Cc1ccc(-c2ncc(-c3ccc(OCCC4CCCCC4)cc3)cn2)cc1)NC(=O)c1ccc(C(C)(C)C)cc1)C(=O)O [Compound 794]
14,> 6.10,CCCCCCCOc1ccc(-c2cnc(-c3ccc(C[C@H](NC(=O)c4ccc(C(C)(C)C)s4)C(=O)N[C@H](C(=O)O)[C@H](C)O)cc3)nc2)cc1 [Compound 646]
15,5.60 to 6.10,CCCCCCCOc1ccc(-c2cnc(-c3ccc(C[C@H](NC(=O)c4ccc(C(C)(C)C)cc4)C(=O)NC(C(=O)O)c4ccc(C)cc4)cc3)nc2)cc1 (stereo partly drawn) [Compound 454]
16,> 6.10,CCCCCCCOc1ccc(-c2cnc(-c3ccc(C[C@H](NC(=O)c4ccc(C(C)(C)C)s4)C(=O)N4CCC[C@H]4C(=O)N4CCCC4C(=O)O)cc3)nc2)cc1 (stereo partly drawn) [Compound 497]
17,> 6.10,C[C@@H](NC(=O)[C@H](Cc1ccc(-c2ncc(-c3ccc(-c4ccccc4F)cc3)cn2)cc1)NC(=O)c1ccc(C(C)(C)C)s1)C(=O)O [Compound 1133]
18,> 6.10,CCCCCCCOc1ccc(-c2cnc(-c3ccc(C[C@H](NC(=O)c4ccc(C(C)(C)C)s4)C(=O)N4CC(C(=O)O)CCC4C)cc3)nc2)cc1 (stereo partly drawn) [Compound 653]
19,> 6.10,CCCCCCCOc1ccc(-c2cnc(-c3ccc(C[C@H](NC(=O)c4ccc(C(C)(C)C)cc4)C(=O)N[C@@H](CC(=O)NC4CC4)C(=O)O)cc3)nc2)cc1 [Compound 479]
